Measured values taken from patent publication US20250186410A1, “DUAL INHIBITORS OF TRYPTOPHAN DIOXYGENASES (IDO1 AND TDO) AND THEIR USE IN THERAPY” (ANTIDO THERAPEUTICS INTERNATIONAL SÀRL, priority 2022, published 2025).

Assays:
[1] = system: LLC-CR (cisplatin-resistant cell tumours); assay: Tumor growth in syngeneic mouse model, LLC-CR allografts; format: in vivo; details: for tumor weight: LLC-CR allograft mice, FIG. 2C; for tumor volume, Mean: LLC-CR tumours, AT-0174 170 mg/kg, epacadostat 200 mg/kg P.O. daily; for Tumor growth: cisplatin-resistant tumor group, FIG. 2B
Protocol: Cisplatin resistant mouse cell lines (LLC-CR) were derived from LLC (mouse Lewis lung cancer cells (epidermoid carcinoma), ATCC) through treatment with increasing doses of cisplatin intermittently. LLC-CR clones were maintained in half GI50 dosage concentration. […] The cultures were observed daily and allowed to grow until they reached an initial cell density. […] After the cells recovered from cisplatin toxicity, they were treated again with increasing dosage of cisplatin for 24 h. These cells are seeded at 500-1000 cells per dish and cultured for 5-7 days. Clones are selected and expanded as well as tested for cisplatin sensitivity. Similar processes of exposure are carried out for a third and fourth time to generate higher resistant clones. At the end, the resistance clones (LLC-CR) were maintained in media completed with 1 μg/ml (half GI50 dosage) of cisplatin. […] Both compounds were administered via oral gavage (P.O.) and diluted with 95% water+5% methylcellulose (0.5%) and stored at −20° C. Compound was prepared every 5 days. Methyl cellulose (95+5%) was used as control (“Veh”). […] At the end of the study, mice were sacrificed and the blood, tumor, and lymph nodes were collected and processed for KYN and tryptophan (TRP) measurement and immune cell assessment respectively. In this example, LLC-CR from the Lewis lung mouse cell line (LLC; see methods) was used to determine, in vivo, the effect of IDO1 or dual IDO1/TDO inhibition on tumor growth. Mice were inoculated with either LLC or LLC-CR and treated with epacadostat (200 mg/kg P.O. 1/day) or AT-0174 (170 mg/kg P.O. 1/day).

[2] = system: lung cancer cell line SC (cisplatin-resistant); assay: Growth inhibition and cytotoxicity assay (trypan blue), SC cells; format: cell-based; details: Homo sapiens
Protocol: (§1) In this study 3 different human-derived lung cancer cell lines were exposed to vehicle control (parental cells B, S and A) or long-term incubation with cisplatin (BC, SC and ALC cells). Long-term incubation with cisplatin induced cisplatin-resistance in the BC, SC and ALC cell lines.
(§2) Cells were seeded in 24-well dishes and treated with various concentrations of inhibitors (i.e. Epacadostat or AT-0174). Briefly, the culture media as well as the trypsinized cells were collected and this mixture was centrifuged at 400×g for 5 min. The supernatant was discarded, re-suspended in 1 mL of Hank's buffer, and assayed for live cells and death cells using trypan blue exclusion method.
(§3) Data from in vitro experiments were performed from three separate biological replicates which were isolated and analyzed in technical triplicates. Separate measurements using the two-tailed t-test and the results were expressed as mean±standard deviation.

[3] = system: kynurenine (KYN) and tryptophan (TRP) levels in mouse serum; assay: KYN and TRP measurements, LLC-CR-bearing mice; format: in vivo; details: AT-0174 170 mg/kg, epacadostat 200 mg/kg P.O. daily
Protocol: LLC or LLC-CR (1×10^6) cells were subcutaneously injected into the flank of C57B6/J male and female mice (5 mice per group, age 6-8 weeks, Jackson laboratory) and allowed to grow for 3 days (average tumor size=50 mm^3) before being treated with the selective IDO1 inhibitor epacadostat at 200 mg/kg daily or with AT-0174 at 170 mg/kg daily (a dual inhibitor of IDO1 and TDO enzymes). Both compounds were administered via oral gavage (P.O.) and diluted with 95% water+5% methylcellulose (0.5%) and stored at −20° C. Compound was prepared every 5 days. Methyl cellulose (95+5%) was used as control (“Veh”). Tumor growth was evaluated every 2 days by measuring tumor volume with calipers according to the following formula: tumor volume=width^2×length×0.5. At the end of the study, mice were sacrificed and the blood, tumor, and lymph nodes were collected and processed for KYN and tryptophan (TRP) measurement and immune cell assessment respectively.
Blood samples were collected via cardiac puncture from mice at the time of sacrifice and the Biochrom 30 amino acid analyzer (using ion exchange chromatography) was used to analyze free amino acids in samples. Briefly, 200 μL of serum extract and equal volume of 30% v/v deproteinization agent (sulfosalicylic acid) were mixed and vortexed for 10 s. Samples were then incubated at 55° C. for 20 min, spin down at 2500 g for 20 min at 4° C. Supernatant were collected, filtered through a 0.22 μm filter, and injected into the Biochrom 30. Values were reported compared to normal ranges in controls. Samples used in ion exchange chromatography are separated in an analytical fashion with an ion exchange column and buffers of increasing pH and ionic strength. After post-column derivatization with Ninhydrin, and colorimetric intensity recordings at 570 nm and 440 nm, the amino acids separated by chromatography were detected. Amino acid concentration was calculated by comparing the peak area of a particular amino acid to the peak area of an internal standard-AEC of known concentration, and then multiplying by its specific response factor from calibration.

[4] = system: lung cancer cell line BC (cisplatin-resistant); assay: Growth inhibition and cytotoxicity assay (trypan blue), BC cells; format: cell-based; details: Homo sapiens
Protocol: as §1, §2, §3

[5] = MTT cell viability in the cellular IDO1/TDO experiments; format: cell-based; details: mouse, read-out: Cytotoxicity IC50
Protocol: The viability of the cells in each well in the same experiment was determined using the 3-(4,5-dimethylthiazolyl-2-yl)-2,5-diphenyltetrazolium bromide (MTT) colourimetric assay. After the removal of the supernatant for determination of IDO1 inhibition, the cells were incubated with MTT (500 μg/mL) until crystal formation was observed. Plates were centrifuged for 15 min at 2500 g, and then all the supernatant in then wells was discarded. DMSO (100 μL/well) was added to dissolve the crystals and then the absorbance in each well was measured at 570 nm. Cell viability in each well was expressed as a percentage of untreated controls. Triplicate cultures were used for all experiments unless stated otherwise.
The viability of the cells in each well in the same experiment was determined using the 3-(4,5-dimethylthiazolyl-2-yl)-2,5-diphenyltetrazolium bromide (MTT) colourimetric assay.

SMILES	tumor weight [1]	tumor volume, Mean ([1]; day 1)	tumor volume, Mean ([1]; day 2)	tumor volume, Mean ([1]; day 3)	tumor volume, Mean ([1]; day 4)	tumor volume, Mean ([1]; day 5)	tumor volume, Mean ([1]; day 6)	tumor volume, Mean ([1]; day 7)	tumor volume, Mean ([1]; day 8)	tumor volume, Mean ([1]; day 9)	tumor volume, Mean ([1]; day 10)	tumor volume, Mean ([1]; day 11)	tumor volume, Mean ([1]; day 12)	tumor volume, Mean ([1]; day 13)	tumor volume, Mean ([1]; day 15)	Tumor growth [1]	KYN/TRP Ratio [3]	Kynurenine [3]	Tyrptophan [3]	other results
Nc1noc2nc(Cl)c(F)cc12 [Compound 66, 6-Chloro-5-fluoroisoxazolo[5,4-b]pyridin-3-amine]	Significant reduction in tumor weight	57.0 mm^3	93.0 mm^3	102.0 mm^3	115.0 mm^3	135.0 mm^3	153.0 mm^3	185.0 mm^3	198.0 mm^3	213.0 mm^3	228.0 mm^3	272.0 mm^3	280.0 mm^3	310.0 mm^3	360.0 mm^3	significantly reduced	1.18 ± 0.31	50 ± 9.7	85.8 ± 8.3	tumor volume, Mean ([1]; day 14): 345.0 mm^3; viability at 12.5 µM ([2]; 12.5 μM AT-0174): 65.7 ± 6.4%; viability at 25 µM ([2]; 25.0 μM AT-0174): 68.1 ± 2.1%; viability at 50 µM ([2]; 50.0 μM AT-0174): 70 ± 2.1%; viability at 12.5 µM ([4]; 12.5 μM AT-0174): 78.8 ± 6.4%; viability at 25 µM ([4]; 25.0 μM AT-0174): 65.3 ± 0.7%; viability at 50 µM ([4]; 50.0 μM AT-0174): 59.9 ± 4.9%; IC50 at 24 h [5]: > 100 µM
NS(=O)(=O)NCCNc1nonc1C(=NO)Nc1ccc(F)c(Br)c1 [Epacadostat, epacadostat, reference compound]	reduction of the total tumor weight	57.0 mm^3	89.0 mm^3	96.0 mm^3	126.0 mm^3	137.0 mm^3	158.0 mm^3	212.0 mm^3	291.0 mm^3	340.0 mm^3	390.0 mm^3	430.0 mm^3	490.0 mm^3	511.0 mm^3	565.0 mm^3	significantly reduced	2.01 ± 0.32	81.8 ± 11.9	43 ± 5.8	–
